From ChEMBL document CHEMBL1201862, “PubChem BioAssay data set” (2004)
Active and inactive are the calls of the source.

Key:
Wee1-like protein kinase = Wee1-like protein kinase (Homo sapiens, UniProt P30291); assay: G2/M cell cycle arrest in HeLa, late-stage follow-up, mechanism study for Wee1 degradation inhibitor project, FACS, panel member Wee1 Degradation (AID 2088)
[1] = target: G2/mitotic-specific cyclin-B1 (Homo sapiens, UniProt P14635); assay: G2/M cell cycle arrest in HeLa, late-stage follow-up, mechanism study for Wee1 degradation inhibitor project, FACS, panel member Cyclin B Degradation (AID 2088)
[2] = Luminescence Cell-Based Dose Response HTS to Identify Activators of Luciferase Translation or Activity in H4 […] Cells. [Related pubchem assays: 1829 (Project Summary), 1814 (Primary HTS)]; assay type: functional
[3] = Luminescence Cell-Based Dose Confirmation to Identify Activators of 5'UTR Stem-Loop Driven Alpha-Synuclein mRNA Translation in H4 Neuroglioblastoma Cells. [Related pubchem assays: 1829 (Project Summary), 1814 (Primary HTS)]; assay type: functional
[4] = target: T1, Rac GTPase-activating protein 1 (Homo sapiens, UniProt Q9H0H5); assay: MgcRacGAP GTPase-activating activity inhibitors, confirmation, biochemical, ADP Hunter fluorescence, primary and confirmatory (AID 624330); assay type: functional
T1 sequence (Q9H0H5 whole entry): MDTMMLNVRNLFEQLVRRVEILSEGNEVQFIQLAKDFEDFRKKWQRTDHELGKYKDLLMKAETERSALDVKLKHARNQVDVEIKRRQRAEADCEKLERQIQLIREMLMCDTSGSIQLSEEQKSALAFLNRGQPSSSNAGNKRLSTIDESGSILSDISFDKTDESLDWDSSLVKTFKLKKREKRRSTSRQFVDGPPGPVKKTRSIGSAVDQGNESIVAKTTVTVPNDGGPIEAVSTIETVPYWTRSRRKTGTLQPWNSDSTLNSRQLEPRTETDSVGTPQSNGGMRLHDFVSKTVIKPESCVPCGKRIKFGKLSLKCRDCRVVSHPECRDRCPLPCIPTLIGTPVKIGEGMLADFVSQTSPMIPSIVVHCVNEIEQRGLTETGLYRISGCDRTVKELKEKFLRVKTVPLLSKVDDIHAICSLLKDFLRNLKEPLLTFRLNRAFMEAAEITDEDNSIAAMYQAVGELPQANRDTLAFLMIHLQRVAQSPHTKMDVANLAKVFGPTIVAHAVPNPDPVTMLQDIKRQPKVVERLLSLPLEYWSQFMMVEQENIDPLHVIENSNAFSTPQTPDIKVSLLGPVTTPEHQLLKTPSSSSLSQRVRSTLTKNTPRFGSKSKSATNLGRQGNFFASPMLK

[5] = target: Cyclin-dependent kinase 5/CDK5 activator 1 (Homo sapiens, UniProt Q00535); assay: CDK5/p35 kinase inhibitors, dose response, biochemical, cherry-picked samples, set 2 (AID 504545)
[6] = Luminescence Cell-Based Dose Response to Identify Activators of Luciferase Translation or Activity in H4-C Neuroglioblastoma Cells. [Related pubchem assays: 1829 (Project Summary), 1814 (Primary HTS)]; assay type: functional
H4 = assay: Luminescence Cell-Based Dose Response HTS to Identify Activators of 5'UTR Stem-Loop Driven Prion Protein mRNA Translation in H4 Neuroglioblastoma Cells. [Related pubchem assays: 1829 (Project Summary), 1814 (Primary HTS)]; assay type: functional; details: Homo sapiens
[7] = target: FAD-linked sulfhydryl oxidase ALR (Homo sapiens, UniProt P55789); assay: inhibitors of human ALR sulfhydryl oxidase, dose response, biochemical, H2O2 detection, luminescence, cherry-pick (AID 493248)
[8] = Luminescence Cell-Based Dose Response to Identify Activators of 5'UTR Stem-Loop Driven Prion Protein mRNA Translation in H4-C Neuroglioblastoma Cells. [Related pubchem assays: 1829 (Project Summary), 1814 (Primary HTS)]; assay type: functional
[9] = Shn3 3'UTR reporter inhibitors, dose response, cell-based, Clone20 osteoblasts, firefly luciferase, cherry-picked (AID 624132); assay type: functional;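 note: firefly luciferase luminescence from reporter carrying the Shn3 3'UTR in osteoblasts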
[10] = target: T2, Short transient receptor potential channel 4 (Mus musculus, UniProt Q9QUQ5); assay: mouse TRPC4 channel activators, dose response, cell-based, HEK293 TRPC4/mu-opioid, Fluo-4 calcium (AID 434937); assay type: functional
T2 sequence (Q9QUQ5 whole entry): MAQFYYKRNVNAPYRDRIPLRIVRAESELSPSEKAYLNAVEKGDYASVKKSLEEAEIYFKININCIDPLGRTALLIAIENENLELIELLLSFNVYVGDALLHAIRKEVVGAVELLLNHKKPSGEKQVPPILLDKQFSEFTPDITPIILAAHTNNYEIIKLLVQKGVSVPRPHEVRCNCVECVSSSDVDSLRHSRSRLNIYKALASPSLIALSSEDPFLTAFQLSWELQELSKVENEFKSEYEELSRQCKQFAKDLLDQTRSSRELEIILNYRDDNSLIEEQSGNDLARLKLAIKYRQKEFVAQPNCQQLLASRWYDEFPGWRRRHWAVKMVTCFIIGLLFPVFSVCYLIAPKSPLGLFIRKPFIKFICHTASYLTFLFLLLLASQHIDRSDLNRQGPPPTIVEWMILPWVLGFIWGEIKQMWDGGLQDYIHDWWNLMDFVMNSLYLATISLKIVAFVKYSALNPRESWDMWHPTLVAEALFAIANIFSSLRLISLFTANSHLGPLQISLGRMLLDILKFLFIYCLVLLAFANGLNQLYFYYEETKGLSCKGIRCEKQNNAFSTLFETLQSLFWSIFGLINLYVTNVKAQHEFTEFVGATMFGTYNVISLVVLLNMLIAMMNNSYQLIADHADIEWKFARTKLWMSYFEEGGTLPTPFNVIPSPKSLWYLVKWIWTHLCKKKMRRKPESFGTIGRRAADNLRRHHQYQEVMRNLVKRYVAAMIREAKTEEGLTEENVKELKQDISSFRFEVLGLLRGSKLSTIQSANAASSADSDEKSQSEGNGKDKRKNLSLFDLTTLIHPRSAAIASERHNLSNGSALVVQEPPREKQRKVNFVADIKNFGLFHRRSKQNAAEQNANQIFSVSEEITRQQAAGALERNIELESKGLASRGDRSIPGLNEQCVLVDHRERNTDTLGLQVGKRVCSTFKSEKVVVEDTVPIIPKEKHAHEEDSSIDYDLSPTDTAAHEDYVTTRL

[11] = control 3'UTR Renilla luciferase suppression, dose response, counter-screen for Shn3 inhibitor project, cell-based, Clone20-Shn3RL, cherry-picked (AID 624133); assay type: functional
Vero [12] = assay: West Nile virus antiviral activity, cell-based, CPE readout (AID 1621); assay type: functional; details: Chlorocebus sabaeus
INS1 = assay: beta cell apoptosis inhibitors, cytokine rescue, dose response, luminescence, retest (AID 449756); assay type: functional, cell-based; details: Rattus norvegicus;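 note: cell death triggered by IL-1 beta plus TNF-alpha plus IFN-gamma mixture; protective hits raise ATP signal compared with cytokine alone wells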
[13] = target: Neurotensin receptor type 1 (Homo sapiens, UniProt P30989); assay type: functional;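 note: Image-based confirmatory dose-response assay measuring agonist activity at NTR1; NTR1-expressing U2OS osteosarcoma cells imaged for beta-arrestin GFP spot formation; agonist potency where compounds increase beta-arrestin recruitment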
Paired box protein Pax-8 = Paired box protein Pax-8 (Homo sapiens, UniProt Q06710); assay: inhibitors of PAX8-driven TPO luciferase reporter, dose response, RMG-I cells, cherry-pick (AID 687027); assay type: functional, cell-based;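 note: luciferase reporter driven by Pax8 target thyroperoxidase promoter measured by SteadyGlo luminescence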
[14] = non-specific cell cytotoxicity, dose response, cytotoxicity control for PAX8 inhibitor project, plate reader, dry powder samples (AID 743021); assay type: functional, cell-based
Vero [15] = assay: host cell cytotoxicity of antiviral hits, dose response, cytotoxicity control for West Nile virus antiviral project, secondary assay (AID 1650); assay type: functional; details: Chlorocebus sabaeus
Protein RecA = target: T3, Protein RecA (Mycobacterium tuberculosis, UniProt P9WHJ3); assay: Fluorescence Cell-Free Homogeneous Dose Retest to Identify Inhibitors of RecA-Intein Splicing Activity. [Related pubchem assays (depositor defined):AID2097, AID2223, AID489010, AID492950]; assay type: functional
T3 sequence (P9WHJ3 whole entry): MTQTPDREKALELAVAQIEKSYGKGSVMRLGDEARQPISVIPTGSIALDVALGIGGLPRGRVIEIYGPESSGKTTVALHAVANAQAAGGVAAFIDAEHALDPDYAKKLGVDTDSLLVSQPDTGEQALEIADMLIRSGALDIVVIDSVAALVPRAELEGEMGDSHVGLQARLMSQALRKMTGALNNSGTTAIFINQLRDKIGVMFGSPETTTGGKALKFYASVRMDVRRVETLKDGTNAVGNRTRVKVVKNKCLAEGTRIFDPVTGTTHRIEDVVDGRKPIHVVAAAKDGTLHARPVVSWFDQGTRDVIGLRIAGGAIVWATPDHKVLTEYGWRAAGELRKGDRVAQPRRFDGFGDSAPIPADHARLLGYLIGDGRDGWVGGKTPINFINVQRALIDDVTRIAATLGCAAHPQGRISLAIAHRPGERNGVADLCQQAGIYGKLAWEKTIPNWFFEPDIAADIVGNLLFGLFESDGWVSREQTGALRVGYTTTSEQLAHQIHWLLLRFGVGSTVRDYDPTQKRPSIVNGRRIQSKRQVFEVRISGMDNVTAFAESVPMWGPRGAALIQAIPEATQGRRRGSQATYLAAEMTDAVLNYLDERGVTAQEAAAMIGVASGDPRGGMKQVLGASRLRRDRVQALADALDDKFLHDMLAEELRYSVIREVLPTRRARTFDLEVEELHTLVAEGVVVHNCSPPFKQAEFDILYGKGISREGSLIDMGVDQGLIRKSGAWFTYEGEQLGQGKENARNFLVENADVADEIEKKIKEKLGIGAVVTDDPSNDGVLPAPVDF

[16] = target: Transitional endoplasmic reticulum ATPase (Homo sapiens, UniProt P55072, C522A); assay: C522A mutant p97 ATPase inhibitors, dose response, counter-screen for p97 inhibitor project, biochemical, luminescence (AID 1544)
HeLa = assay: HeLa cell cytotoxicity, dose response, cytotoxicity control, 24 h, cherry-picked samples (AID 504726); assay type: functional, cell-based; details: Homo sapiens;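 note: potency for cytotoxicity as loss of luminescence signal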
Salmon testes DNA = assay: DNA intercalators displacing acridine orange, dose response, artefact control for KSHV LANA DNA-binding inhibitor project, biochemical, fluorescence polarization, cherry-picked samples, set 2 (AID 504727); design: species or system Salmonidae
[17] = target: Transitional endoplasmic reticulum ATPase (Homo sapiens, UniProt P55072); assay: p97 ATPase inhibitors, dose response, biochemical (AID 1534)
[18] = A cytotoxicity screen of small molecule inhibitors of the PhoP region in Salmonella typhi identified in the primary screen. [Related pubchem assays: 1850, 1864, 1985 ]; assay type: functional
[19] = target: T4, Histone-lysine N-methyltransferase NSD2 (Homo sapiens, UniProt O96028); assay type: biochemical
T4 sequence (O96028 whole entry): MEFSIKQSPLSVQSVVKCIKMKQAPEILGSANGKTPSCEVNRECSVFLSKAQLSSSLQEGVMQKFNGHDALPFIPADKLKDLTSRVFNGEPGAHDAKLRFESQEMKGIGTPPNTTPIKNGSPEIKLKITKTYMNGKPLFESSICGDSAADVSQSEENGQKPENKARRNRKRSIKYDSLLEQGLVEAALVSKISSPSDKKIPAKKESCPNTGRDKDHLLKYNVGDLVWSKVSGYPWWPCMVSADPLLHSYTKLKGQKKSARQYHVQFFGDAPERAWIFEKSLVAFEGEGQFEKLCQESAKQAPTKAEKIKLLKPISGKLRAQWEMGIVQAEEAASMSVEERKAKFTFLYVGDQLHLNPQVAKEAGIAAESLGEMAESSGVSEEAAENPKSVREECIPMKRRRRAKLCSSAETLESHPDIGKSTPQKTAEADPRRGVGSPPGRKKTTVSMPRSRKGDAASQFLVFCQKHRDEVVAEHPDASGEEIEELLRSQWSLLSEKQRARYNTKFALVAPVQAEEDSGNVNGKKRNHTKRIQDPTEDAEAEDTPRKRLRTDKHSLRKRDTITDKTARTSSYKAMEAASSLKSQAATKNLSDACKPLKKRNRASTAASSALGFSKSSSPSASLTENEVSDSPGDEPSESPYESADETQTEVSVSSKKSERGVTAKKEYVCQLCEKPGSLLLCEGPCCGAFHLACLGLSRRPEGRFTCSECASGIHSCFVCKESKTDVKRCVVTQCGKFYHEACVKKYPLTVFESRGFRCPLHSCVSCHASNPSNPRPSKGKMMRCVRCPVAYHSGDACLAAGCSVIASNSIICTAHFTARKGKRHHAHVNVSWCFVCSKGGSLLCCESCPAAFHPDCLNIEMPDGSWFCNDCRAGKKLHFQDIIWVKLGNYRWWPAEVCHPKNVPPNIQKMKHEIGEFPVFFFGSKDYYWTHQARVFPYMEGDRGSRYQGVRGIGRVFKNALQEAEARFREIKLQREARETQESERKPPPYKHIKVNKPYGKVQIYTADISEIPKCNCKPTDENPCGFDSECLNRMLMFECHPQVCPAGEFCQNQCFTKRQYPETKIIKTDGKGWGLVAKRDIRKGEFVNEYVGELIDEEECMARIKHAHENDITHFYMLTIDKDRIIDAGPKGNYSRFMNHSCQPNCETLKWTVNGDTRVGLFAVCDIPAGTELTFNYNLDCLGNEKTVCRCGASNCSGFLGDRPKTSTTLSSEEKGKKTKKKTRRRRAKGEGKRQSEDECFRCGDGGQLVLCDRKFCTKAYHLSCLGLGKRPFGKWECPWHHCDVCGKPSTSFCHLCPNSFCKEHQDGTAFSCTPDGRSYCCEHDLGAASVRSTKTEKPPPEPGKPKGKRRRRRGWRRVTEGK

NS3 = NS3 (Hepatitis C virus, UniProt A3EZJ3); assay: PubChem AID 2173; design: species or system Hepacivirus hominis
NS3, sequence (A3EZJ3 whole entry): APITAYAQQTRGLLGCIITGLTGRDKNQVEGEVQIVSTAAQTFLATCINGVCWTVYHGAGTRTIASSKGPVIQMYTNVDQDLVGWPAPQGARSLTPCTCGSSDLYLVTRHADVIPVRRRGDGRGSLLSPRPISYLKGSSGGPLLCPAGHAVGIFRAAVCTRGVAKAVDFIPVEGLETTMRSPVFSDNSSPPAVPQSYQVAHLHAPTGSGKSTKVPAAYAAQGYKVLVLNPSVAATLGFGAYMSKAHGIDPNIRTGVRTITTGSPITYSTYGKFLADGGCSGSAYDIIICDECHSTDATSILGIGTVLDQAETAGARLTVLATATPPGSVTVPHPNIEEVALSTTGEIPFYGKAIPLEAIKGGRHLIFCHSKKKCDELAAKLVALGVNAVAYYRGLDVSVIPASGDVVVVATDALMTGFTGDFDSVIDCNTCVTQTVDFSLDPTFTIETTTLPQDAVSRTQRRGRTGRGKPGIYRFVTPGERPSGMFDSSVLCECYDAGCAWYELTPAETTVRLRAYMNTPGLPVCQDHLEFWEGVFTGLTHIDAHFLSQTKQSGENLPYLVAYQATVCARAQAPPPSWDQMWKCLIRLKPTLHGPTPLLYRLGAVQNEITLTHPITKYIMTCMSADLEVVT

Transitional endoplasmic reticulum ATPase (Homo sapiens, UniProt P55072), sequence (P55072 whole entry): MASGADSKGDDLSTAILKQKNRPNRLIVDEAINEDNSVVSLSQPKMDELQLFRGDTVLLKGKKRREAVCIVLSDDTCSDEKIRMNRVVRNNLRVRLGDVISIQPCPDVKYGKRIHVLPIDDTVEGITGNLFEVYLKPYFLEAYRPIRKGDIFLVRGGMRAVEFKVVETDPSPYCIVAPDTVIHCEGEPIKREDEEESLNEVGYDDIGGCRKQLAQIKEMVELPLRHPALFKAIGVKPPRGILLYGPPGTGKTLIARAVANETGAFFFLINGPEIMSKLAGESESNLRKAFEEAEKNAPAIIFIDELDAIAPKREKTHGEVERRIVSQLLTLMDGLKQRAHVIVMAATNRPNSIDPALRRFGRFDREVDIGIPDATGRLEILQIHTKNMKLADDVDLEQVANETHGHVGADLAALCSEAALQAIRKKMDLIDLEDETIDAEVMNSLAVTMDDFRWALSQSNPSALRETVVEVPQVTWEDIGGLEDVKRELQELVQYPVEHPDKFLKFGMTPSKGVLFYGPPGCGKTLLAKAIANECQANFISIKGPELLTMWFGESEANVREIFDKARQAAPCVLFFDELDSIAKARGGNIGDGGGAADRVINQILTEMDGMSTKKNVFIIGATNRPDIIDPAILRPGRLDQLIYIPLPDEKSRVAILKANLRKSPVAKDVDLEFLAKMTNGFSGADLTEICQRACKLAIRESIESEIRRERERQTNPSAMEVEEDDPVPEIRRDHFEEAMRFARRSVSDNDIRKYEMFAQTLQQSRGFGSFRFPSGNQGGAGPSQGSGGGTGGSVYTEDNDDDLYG
Neurotensin receptor type 1, sequence (P30989 whole entry): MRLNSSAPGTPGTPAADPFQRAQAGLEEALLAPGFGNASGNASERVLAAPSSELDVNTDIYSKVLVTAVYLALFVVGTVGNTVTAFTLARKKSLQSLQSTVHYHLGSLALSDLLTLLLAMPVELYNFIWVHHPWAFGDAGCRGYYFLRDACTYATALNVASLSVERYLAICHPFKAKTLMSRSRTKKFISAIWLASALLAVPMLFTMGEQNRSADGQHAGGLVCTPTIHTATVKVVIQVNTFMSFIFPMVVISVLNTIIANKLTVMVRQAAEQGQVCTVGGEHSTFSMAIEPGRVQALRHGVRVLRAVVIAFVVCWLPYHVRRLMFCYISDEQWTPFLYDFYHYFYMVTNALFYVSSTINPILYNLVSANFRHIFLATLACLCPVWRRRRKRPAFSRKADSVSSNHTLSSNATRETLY
Wee1-like protein kinase, sequence (P30291 whole entry): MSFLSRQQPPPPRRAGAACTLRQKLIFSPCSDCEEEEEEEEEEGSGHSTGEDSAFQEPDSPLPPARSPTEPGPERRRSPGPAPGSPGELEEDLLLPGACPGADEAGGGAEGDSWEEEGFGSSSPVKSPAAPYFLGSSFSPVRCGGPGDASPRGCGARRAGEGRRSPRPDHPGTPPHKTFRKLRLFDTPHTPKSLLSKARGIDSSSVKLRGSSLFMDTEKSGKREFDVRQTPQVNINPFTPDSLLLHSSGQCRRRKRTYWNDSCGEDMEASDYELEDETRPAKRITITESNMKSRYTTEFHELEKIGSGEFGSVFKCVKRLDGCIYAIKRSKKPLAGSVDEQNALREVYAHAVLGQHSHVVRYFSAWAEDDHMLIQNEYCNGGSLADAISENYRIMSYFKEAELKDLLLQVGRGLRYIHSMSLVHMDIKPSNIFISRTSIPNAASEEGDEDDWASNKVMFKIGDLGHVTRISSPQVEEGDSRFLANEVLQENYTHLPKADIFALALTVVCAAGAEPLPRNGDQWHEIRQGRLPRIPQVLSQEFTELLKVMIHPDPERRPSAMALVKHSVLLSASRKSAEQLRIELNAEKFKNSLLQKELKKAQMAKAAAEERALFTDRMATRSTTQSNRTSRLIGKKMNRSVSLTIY
Paired box protein Pax-8, sequence (Q06710 whole entry): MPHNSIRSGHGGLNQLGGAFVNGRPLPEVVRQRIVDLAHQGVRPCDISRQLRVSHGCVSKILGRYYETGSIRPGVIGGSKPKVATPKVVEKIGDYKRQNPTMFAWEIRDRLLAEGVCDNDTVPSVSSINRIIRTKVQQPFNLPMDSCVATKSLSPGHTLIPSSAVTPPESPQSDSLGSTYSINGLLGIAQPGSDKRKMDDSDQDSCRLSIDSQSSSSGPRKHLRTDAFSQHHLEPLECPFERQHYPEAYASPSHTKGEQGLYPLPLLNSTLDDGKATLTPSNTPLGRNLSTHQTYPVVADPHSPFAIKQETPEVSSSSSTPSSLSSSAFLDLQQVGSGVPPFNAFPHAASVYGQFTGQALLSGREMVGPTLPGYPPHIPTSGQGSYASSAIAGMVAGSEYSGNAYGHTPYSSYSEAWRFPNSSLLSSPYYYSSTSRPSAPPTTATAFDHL
Transitional endoplasmic reticulum ATPase (Homo sapiens, UniProt P55072, C522A), sequence (P55072 2-806 C522A limits assumed): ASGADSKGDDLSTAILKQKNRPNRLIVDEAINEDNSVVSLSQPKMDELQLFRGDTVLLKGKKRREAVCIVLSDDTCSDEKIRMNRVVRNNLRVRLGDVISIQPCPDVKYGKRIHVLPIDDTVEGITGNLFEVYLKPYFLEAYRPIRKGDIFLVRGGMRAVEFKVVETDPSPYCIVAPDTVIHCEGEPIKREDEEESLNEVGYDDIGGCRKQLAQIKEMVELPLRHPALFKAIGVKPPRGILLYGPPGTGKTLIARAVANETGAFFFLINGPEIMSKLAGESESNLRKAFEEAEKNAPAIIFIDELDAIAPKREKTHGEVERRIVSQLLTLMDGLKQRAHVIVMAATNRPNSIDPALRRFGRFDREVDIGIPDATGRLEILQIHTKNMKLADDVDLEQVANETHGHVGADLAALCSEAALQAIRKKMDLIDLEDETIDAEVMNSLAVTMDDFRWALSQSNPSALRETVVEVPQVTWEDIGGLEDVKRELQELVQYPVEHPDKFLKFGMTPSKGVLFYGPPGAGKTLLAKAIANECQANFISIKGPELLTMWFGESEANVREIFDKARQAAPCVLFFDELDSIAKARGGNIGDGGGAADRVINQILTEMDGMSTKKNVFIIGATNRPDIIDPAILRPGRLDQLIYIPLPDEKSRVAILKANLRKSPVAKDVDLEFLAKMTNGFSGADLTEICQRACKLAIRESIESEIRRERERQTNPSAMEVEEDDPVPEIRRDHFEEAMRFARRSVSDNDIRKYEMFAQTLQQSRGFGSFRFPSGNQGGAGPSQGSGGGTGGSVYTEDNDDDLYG
FAD-linked sulfhydryl oxidase ALR, sequence (P55789 whole entry): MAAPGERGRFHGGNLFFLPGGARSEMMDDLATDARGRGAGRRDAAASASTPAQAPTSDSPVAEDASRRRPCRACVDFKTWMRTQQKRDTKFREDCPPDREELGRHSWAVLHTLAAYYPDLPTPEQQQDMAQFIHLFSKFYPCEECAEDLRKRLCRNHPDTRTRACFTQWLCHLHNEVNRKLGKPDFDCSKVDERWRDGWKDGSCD
Cyclin-dependent kinase 5/CDK5 activator 1, sequence (Q00535 whole entry): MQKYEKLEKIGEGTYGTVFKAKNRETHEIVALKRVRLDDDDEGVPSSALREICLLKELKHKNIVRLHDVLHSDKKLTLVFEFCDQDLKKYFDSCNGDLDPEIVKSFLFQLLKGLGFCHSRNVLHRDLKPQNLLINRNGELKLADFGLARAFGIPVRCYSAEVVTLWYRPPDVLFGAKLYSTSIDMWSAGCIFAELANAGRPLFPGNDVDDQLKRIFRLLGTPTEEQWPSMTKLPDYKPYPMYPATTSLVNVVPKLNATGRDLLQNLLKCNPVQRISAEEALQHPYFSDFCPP
Cyclin-dependent kinase 5/CDK5 activator 1, sequence (Q15078 whole entry, further chain): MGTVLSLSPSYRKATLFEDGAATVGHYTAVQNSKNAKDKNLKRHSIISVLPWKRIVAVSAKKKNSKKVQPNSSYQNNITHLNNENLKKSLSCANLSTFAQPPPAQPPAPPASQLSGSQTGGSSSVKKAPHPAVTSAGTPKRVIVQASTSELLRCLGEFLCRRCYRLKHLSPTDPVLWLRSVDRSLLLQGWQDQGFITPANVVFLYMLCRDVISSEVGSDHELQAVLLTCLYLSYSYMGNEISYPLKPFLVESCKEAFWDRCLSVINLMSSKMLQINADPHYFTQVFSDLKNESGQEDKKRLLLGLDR
G2/mitotic-specific cyclin-B1, sequence (P14635 whole entry): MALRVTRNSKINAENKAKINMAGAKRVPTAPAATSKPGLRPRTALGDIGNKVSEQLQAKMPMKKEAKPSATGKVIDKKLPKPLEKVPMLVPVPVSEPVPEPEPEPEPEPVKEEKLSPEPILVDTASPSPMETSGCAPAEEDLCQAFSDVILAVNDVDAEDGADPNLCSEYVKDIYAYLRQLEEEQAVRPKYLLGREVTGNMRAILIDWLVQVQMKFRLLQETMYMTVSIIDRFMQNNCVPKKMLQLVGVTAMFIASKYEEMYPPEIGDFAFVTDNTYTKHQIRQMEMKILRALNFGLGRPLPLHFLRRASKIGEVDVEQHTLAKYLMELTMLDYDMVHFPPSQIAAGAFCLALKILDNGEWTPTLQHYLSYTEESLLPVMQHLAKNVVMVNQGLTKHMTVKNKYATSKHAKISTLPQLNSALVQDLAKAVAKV

Cc1cc(O)nc(-n2nc(C)cc2NC(=O)c2ccc(Br)cc2)n1
inactive: EC50 (Wee1-like protein kinase) > 49.7 µM | EC50 [1] > 49.7 µM

Oc1ccc(/C=N/Nc2ccc(C(F)(F)F)cn2)cc1
> 120 µM (not active): EC50 (H4)
inconclusive: EC50 [2] < 100 nM
active: EC50 [3] 350 nM | IC50 [4] 28.9 µM | AC50 [5] 19.9 µM | EC50 [6] 329 nM | AC50 [7] 37.5 µM | EC50 [8] 998 nM

CC[C@@H](C(=O)[C@@H](C)[C@@H](O)[C@H](C)CCc1ccc(C)c(O)c1C(=O)O)[C@H]1O[C@](CC)([C@H]2CC[C@](O)(CC)[C@H](C)O2)C[C@@H]1C [LASALOCID A SODIUM]
active: AC50 [9] 7.93 µM | EC50 [10] 5.96 µM | AC50 [11] 8.23 µM | IC50 (Vero [12]) 8.3 µM | AC50 (INS1) 2.64 µM | AC50 (Paired box protein Pax-8) 3.52 µM | AC50 [14] 40.7 µM | CC50 (Vero [15]) 19.4 µM
inactive: EC50 [13] 30.5 µM

CCCCn1c(NS(=O)(=O)c2ccc(C)cc2)c(S(=O)(=O)c2ccccc2)c2nc3ccccc3nc21
active: AC50 (HeLa) 313 µM | AC50 (Salmon testes DNA) 43.7 µM | EC50 [18] > 50 µM | AC50 [19] 12.2 µM | IC50 (NS3) 662 nM
> 50 µM (not active): IC50 [16] | IC50 [17]
inconclusive: EC50 (Protein RecA) > 380 µM
